“Also recorded” adds a separate entry of the source.
How the values were obtained:
Hs 746T = assay: Cell killing, Hs 746T; format: cell-based, human; parameters: key: Sensitive; Resistant; conditions: Gastric Ca
Experimental: (§1) Briefly described, 2-3×10^3 cells/well in 100 μL of culture medium may be plated in 96 well plates and incubated overnight at 37° C., 5% CO2. The MET-ADCs, MET antibody(ies), control MMAE or control hIgG4 conjugated to MMAE with cysteine conjugation antibody(ies) may be diluted 1:3 in serum-free culture medium starting from 100 nM (final) in 50 μL as 3× concentrations to the HT-29 cells. At the end of an additional 5-6 days of cell growth at 37° C. in a humidified incubator with 5% CO2, the plates may be equilibrated to room temperature for 30 minutes and 100 μL/well of CellTiter-Glo® reagent (Promega Corp., Fitchburg, Wis.) may then be added to assess cell viability. Cell viability may be determined by measuring luminescence.
(§2) Various tumor cell lines and normal human cells may be tested for MET-ADC induced cell killing activity essentially as described above in Example 10 as assessed for MET receptor density. MET cell surface density was determined by indirect immunofluorescence staining of cell surface antigens on cultured cells using QIFIKIT (Dako). […] Following a forty-five minute incubation, cells may be incubated for 1 hour on ice with FITC conjugated antibody diluted 1:50 in FACS buffer. Then cells may be washed and receptor numbers may be determined by indirect immunofluorescence staining of the QIFIKIT beads using a Becton Dickinson LSRII flow cytometer.

RKO = RKO cell-killing assay; format: cell-based, human; conditions: RKO (BRAF, PIK3) colon cancer cells
Experimental: as §1, §2

Calu-6 xenograft = assay: Calu-6 non-small-cell-lung cancer xenograft model; format: in vivo, mouse
Experimental: (§3) Female athymic nude mice age 6- to 7-weeks old are available commercially, including from Harlan Laboratories (Indianapolis, Ind.). The mice are allowed to acclimate for one week and fed ad libitum on a normal low fat (4.5%) diet, which may be continued for the duration of the study. Tumor cells may be purchased from ATCC and may be cultured in cell culture media such as RPMI 1640 (Life Technologies) with L-glutamine, 25 mM HEPES supplemented with 10% FBS and 1 mM Na Pyruvate. Cells may be detached, washed with serum free medium and then resuspended at a final concentration of 50×10^6 cells/mL in serum free RPMI 1640. Tumor cells, approximately 5×10^6, may be injected subcutaneously in the rear flank of subject mice in a 1:1 mixture of serum free growth medium and Matrigel (Becton Dickinson, Bedford, Mass.). Tumor and body weight measurements may be performed twice weekly. Prior to treatment, mice can be randomized based on tumor size using a randomization algorithm. Treatments may be started when the average tumor volume reaches 100 mm^3. […]
MET-ADCs and control hIgG4-MMAE may be prepared in Phosphate Buffered Saline (PBS) prior to dose. Tumor size may be determined by caliper measurements. […] Log volume data can be analyzed with two-way repeated measures ANOVA by time and treatment using SAS PROC MIXED software (SAS Institutes Inc, Cary, N.C.). […]

[1] = system: cholangiocarcinoma PDX tumors; assay: Cholangiocarcinoma PDX model; format: in vivo, mouse; conditions: 5 mg/kg weekly, four doses; 4 cholangiocarcinoma PDX
Excerpt: Body weight can also be assessed regularly.
Tumor samples from 4 human cholangiocarcinoma patients were individually implanted into different immunocompromised mice (i.e., each mouse carried one tumor derived from a patient's cholangiocarcinoma tumor) essentially as described above in this Example 13.

[2] = system: HT-29 colon cancer tumor xenografts; assay: HT-29 mouse xenograft model; format: in vivo; conditions: 1 mg/kg x3 Q7D
Experimental: as §3
MET-ADCs and control hIgG4-MMAE may be prepared in Phosphate Buffered Saline (PBS) prior to dose. Tumor size may be determined by caliper measurements. […] Tumor volume data can be transformed to a log scale to equalize variance across time and treatment groups. Log volume data can be analyzed with two-way repeated measures ANOVA by time and treatment using SAS PROC MIXED software (SAS Institutes Inc, Cary, N.C.). Treatment groups are compared with the specified control group at each time point.

HPAF-II = assay: Cell killing, HPAF-II; format: cell-based, human; parameters: key: Sensitive; Resistant; conditions: PANC Ca
Experimental: as §1, §2

NCI-H292 = assay: Cell killing, NCI-H292; format: cell-based, human; parameters: key: Sensitive; Resistant; conditions: NCI-H292, NSCLC
Experimental: as §1, §2

SNU869 = assay: Cell killing, SNU869; format: cell-based, human; parameters: key: Sensitive; Resistant; conditions: SNU869, Cholangiocarcinoma
Experimental: as §1, §2

L55 = assay: Cell killing, L55; format: cell-based, human; parameters: key: Sensitive; Resistant; conditions: L55, NSCLC
Experimental: as §1, §2

Substance: MET-ADC#1: emibetuzumab lysine-conjugated via (2,5-dioxopyrrolidin-1-yl) 2-azidoacetate and Octyne-β-Glucn-MMAE
- Sensitive/ Resistant (Hs 746T): S
- cell killing activity in RKO cells (RKO): killed; also recorded: highly potent in killing RKO cells
- antitumor efficacy (Calu-6 xenograft): initial tumor regression and stable disease status
- inhibition of tumor growth [1]: dramatically inhibited tumor growth
- Observation (efficacy in HT-29 mouse xenograft) [2]: Tumor regression^
- Observation (efficacy in HT-29 mouse xenograft) ([2]; listed as MET-ADC #1): far superior efficacy
- Sensitive/ Resistant (HPAF-II): S
- Sensitive/ Resistant (NCI-H292): S
- Sensitive/ Resistant (SNU869): S
- Sensitive/ Resistant (L55): R
